Like-named read-outs stand apart in the source and are kept apart here.
Target: T1, recombinant human GluN1/GluN2A receptor (Homo sapiens, UniProt Q05586+Q12879)
T1 construct: expressed in transfected cells; host or cells: HEK293, tetracycline-inducible expression
Experiment: Whole-cell patch clamp of mammalian cells (Syncropatch 384i), NMDA modulation
Assay type: cell-based
Details: HEK293 cells, human GluN1/GluN2A, glutamate 1 μM / glycine 100 μM, -80 mV, peak amplitude increase; for EC50: read-out: EC50
How it was run: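 HEK293 cells with tetracycline-induced (50 ng/ml, 18–24 h) human GluN1/GluN2A, automated whole-cell recording at −80 mV, pH 7.4 external. After 120 s compound pre-incubation, compound applied with glutamate 1 μM/glycine 100 μM; fold peak increase (Icomp/Icontrol)−1 over 8 concentrations fitted four-parameter logistic.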

T1 sequence (Q12879 23-1464, other chains not shown): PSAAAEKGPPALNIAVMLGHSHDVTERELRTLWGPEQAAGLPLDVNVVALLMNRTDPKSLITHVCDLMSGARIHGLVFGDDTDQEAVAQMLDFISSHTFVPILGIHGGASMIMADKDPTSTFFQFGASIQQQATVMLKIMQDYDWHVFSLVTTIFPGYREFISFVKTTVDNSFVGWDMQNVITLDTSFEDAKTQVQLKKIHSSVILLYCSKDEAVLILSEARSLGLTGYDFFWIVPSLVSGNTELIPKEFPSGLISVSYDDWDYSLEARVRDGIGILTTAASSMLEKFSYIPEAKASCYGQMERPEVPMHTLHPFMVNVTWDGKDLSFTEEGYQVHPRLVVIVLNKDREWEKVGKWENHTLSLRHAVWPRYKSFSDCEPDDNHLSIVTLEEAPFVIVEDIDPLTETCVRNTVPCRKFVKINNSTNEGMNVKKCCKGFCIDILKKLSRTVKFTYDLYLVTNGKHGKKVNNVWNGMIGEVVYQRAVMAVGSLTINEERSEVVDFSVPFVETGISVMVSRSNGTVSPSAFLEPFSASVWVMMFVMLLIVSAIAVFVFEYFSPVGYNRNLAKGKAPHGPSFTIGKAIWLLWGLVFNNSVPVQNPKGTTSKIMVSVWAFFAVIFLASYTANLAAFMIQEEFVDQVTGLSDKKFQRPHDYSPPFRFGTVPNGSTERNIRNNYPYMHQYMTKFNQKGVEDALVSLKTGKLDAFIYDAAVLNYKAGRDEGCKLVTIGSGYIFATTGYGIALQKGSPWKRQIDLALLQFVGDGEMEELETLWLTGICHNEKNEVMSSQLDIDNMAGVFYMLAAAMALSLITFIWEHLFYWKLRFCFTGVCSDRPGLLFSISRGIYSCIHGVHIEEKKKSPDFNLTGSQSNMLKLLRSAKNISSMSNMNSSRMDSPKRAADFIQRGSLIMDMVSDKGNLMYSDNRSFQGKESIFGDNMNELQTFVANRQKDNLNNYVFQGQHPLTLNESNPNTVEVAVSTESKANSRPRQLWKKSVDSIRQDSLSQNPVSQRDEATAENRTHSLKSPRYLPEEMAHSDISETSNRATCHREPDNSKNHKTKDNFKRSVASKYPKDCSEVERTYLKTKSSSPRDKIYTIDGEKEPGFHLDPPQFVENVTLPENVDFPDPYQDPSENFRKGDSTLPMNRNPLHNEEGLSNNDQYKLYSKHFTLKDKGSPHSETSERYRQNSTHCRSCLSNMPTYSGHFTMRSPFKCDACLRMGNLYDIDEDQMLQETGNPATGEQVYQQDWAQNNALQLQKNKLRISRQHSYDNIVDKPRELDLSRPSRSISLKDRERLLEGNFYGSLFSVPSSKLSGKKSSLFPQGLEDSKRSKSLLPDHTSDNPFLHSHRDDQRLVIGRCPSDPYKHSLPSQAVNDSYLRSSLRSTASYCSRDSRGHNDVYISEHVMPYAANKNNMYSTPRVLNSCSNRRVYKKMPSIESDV

| SMILES | EC50 (Table E-2) | EC50 (Table F-2) | also measured |
| --- | --- | --- | --- |
| CC(C)[C@H](O)CC[C@@H](C)[C@H]1CC[C@H]2[C@@H]3CC[C@H]4C[C@@](C)(O)CC[C@]4(C)C3=CC[C@]12C [Compound E-11, (3S,5S,8S,10S,13R,14S,17R)-17-((2R,5R)-5-hydroxy-6-methylheptan-2-yl)-3,10,13-trimethyl-2,3,4,5,6,7,8,10,12,13,14,15,16,17-tetradecahydro-1H-cyclopenta[a]phenanthren-3-ol] | 0.001 to 0.1 µM | – | Emax (Table E-2): 100 to 200% |
| CC(C)[C@@H](O)CC[C@@H](C)[C@H]1CC[C@H]2[C@@H]3CC[C@H]4C[C@@](C)(O)CC[C@]4(C)C3=CC[C@]12C [Compound E-12, (3S,5S,8S,10S,13R,14S,17R)-17-((2R,5S)-5-hydroxy-6-methylheptan-2-yl)-3,10,13-trimethyl-2,3,4,5,6,7,8,10,12,13,14,15,16,17-tetradecahydro-1H-cyclopenta[a]phenanthren-3-ol] | 0.001 to 0.1 µM | – | Emax (Table E-2): 100 to 200% |
| C[C@H](CC[C@](C)(O)C(F)(F)F)[C@H]1CC[C@H]2[C@@H]3CC[C@H]4C[C@@](C)(O)CC[C@]4(C)C3=CC[C@]12C [Compound E-13, (3S,5S,8S,10S,13R,14S,17R)-3,10,13-trimethyl-17-((2R,5S)-6,6,6-trifluoro-5-hydroxy-5-methylhexan-2-yl)-2,3,4,5,6,7,8,10,12,13,14,15,16,17-tetradecahydro-1H-cyclopenta[a]phenanthren-3-ol] | 0.001 to 0.1 µM | – | – |
| C[C@H](CC[C@@](C)(O)C(F)(F)F)[C@H]1CC[C@H]2[C@@H]3CC[C@H]4C[C@@](C)(O)CC[C@]4(C)C3=CC[C@]12C [Compound E-14, (3S,5S,8S,10S,13R,14S,17R)-3,10,13-trimethyl-17-((2R,5R)-6,6,6-trifluoro-5-hydroxy-5-methylhexan-2-yl)-2,3,4,5,6,7,8,10,12,13,14,15,16,17-tetradecahydro-1H-cyclopenta[a]phenanthren-3-ol] | 0.1 to 0.5 µM | – | – |
| C[C@H](CCC1(O)CC1)[C@H]1CC[C@H]2[C@@H]3CC[C@H]4C[C@@](C)(O)CC[C@]4(C)C3=CC[C@]12C [Compound E-15, (3S,5S,8S,10S,13R,14S,17R)-17-((R)-4-(1-hydroxycyclopropyl)butan-2-yl)-3,10,13-trimethyl-2,3,4,5,6,7,8,10,12,13,14,15,16,17-tetradecahydro-1H-cyclopenta[a]phenanthren-3-ol] | 0.001 to 0.1 µM | – | – |
| CCC(O)(CC)CC[C@@H](C)[C@H]1CC[C@H]2[C@@H]3CC[C@H]4C[C@@](C)(O)CC[C@]4(C)C3=CC[C@]12C [Compound E-16, (3S,5S,8S,10S,13R,14S,17R)-17-((R)-5-ethyl-5-hydroxyheptan-2-yl)-3,10,13-trimethyl-2,3,4,5,6,7,8,10,12,13,14,15,16,17-tetradecahydro-1H-cyclopenta[a]phenanthren-3-ol] | 0.5 to 1 µM | – | – |
| CC[C@]12CC[C@H]3[C@@H](CC=C4C[C@@](C)(O)CC[C@@]43C)[C@@H]1CC[C@@H]2[C@H](C)CC[C@H](O)C(C)C [Compound F-3, (3S,8S,9S,10R,13R,14S,17R)-13-ethyl-17-((2R,5S)-5-hydroxy-6-methylheptan-2-yl)-3,10-dimethyl-2,3,4,7,8,9,10,11,12,13,14,15,16,17-tetradecahydro-1H-cyclopenta[a]phenanthren-3-ol] | – | 0.1 to 0.5 µM | – |
| CC[C@]12CC[C@H]3[C@@H](CC=C4C[C@@](C)(O)CC[C@@]43C)[C@@H]1CC[C@@H]2[C@H](C)CC[C@@H](O)C(C)C [Compound F-4, (3S,8S,9S,10R,13R,14S,17R)-13-ethyl-17-((2R,5R)-5-hydroxy-6-methylheptan-2-yl)-3,10-dimethyl-2,3,4,7,8,9,10,11,12,13,14,15,16,17-tetradecahydro-1H-cyclopenta[a]phenanthren-3-ol] | – | 0.1 to 0.5 µM | – |
| CC[C@]1(O)CC[C@@]2(C)C(=CC[C@H]3[C@@H]4CC[C@H]([C@H](C)CC[C@H](O)C(C)C)[C@@]4(CC)CC[C@@H]32)C1 [Compound F-5, (3S,8S,9S,10R,13R,14S,17R)-3,13-diethyl-17-((2R,5S)-5-hydroxy-6-methylheptan-2-yl)-10-methyl-2,3,4,7,8,9,10,11,12,13,14,15,16,17-tetradecahydro-1H-cyclopenta[a]phenanthren-3-ol] | – | 0.1 to 0.5 µM | – |
| CC[C@]1(O)CC[C@@]2(C)[C@@H](CC[C@@H]3[C@@H]2CC[C@]2(CC)[C@@H]([C@H](C)CC[C@H](O)C(C)C)CC[C@@H]32)C1 [Compound F-6, (3S,5S,8R,9S,10S,13R,14S,17R)-3,13-diethyl-17-((2R,5S)-5-hydroxy-6-methylheptan-2-yl)-10-methylhexadecahydro-1H-cyclopenta[a]phenanthren-3-ol] | – | 0.1 to 0.5 µM | – |
| CC[C@]1(O)CC[C@@]2(C)[C@@H](CC[C@@H]3[C@@H]2CC[C@]2(CC)[C@@H]([C@H](C)CC[C@@H](O)C(C)C)CC[C@@H]32)C1 [Compound F-7, (3S,5S,8R,9S,10S,13R,14S,17R)-3,13-diethyl-17-((2R,5R)-5-hydroxy-6-methylheptan-2-yl)-10-methylhexadecahydro-1H-cyclopenta[a]phenanthren-3-ol] | – | 0.1 to 0.5 µM | – |
| CC[C@]1(O)CC[C@@]2(C)[C@@H](CC[C@H]3[C@@H]4CC[C@H]([C@H](C)CC[C@H](O)C(C)C)[C@H]4CC[C@@H]32)C1 [Compound F-8, (3S,5S,8S,9S,10S,13R,14R,17R)-3-ethyl-17-((2R,5S)-5-hydroxy-6-methylheptan-2-yl)-10-methylhexadecahydro-1H-cyclopenta[a]phenanthren-3-ol] | – | 0.1 to 0.5 µM | – |
| CC[C@]1(O)CC[C@@]2(C)[C@@H](CC[C@H]3[C@@H]4CC[C@H]([C@H](C)CC[C@@H](O)C(C)C)[C@H]4CC[C@@H]32)C1 [Compound F-9, (3S,5S,8S,9S,10S,13R,14R,17R)-3-ethyl-17-((2R,5R)-5-hydroxy-6-methylheptan-2-yl)-10-methylhexadecahydro-1H-cyclopenta[a]phenanthren-3-ol] | – | 0.1 to 0.5 µM | – |
| CC[C@]1(O)CC[C@@]2(C)C(=CC[C@H]3[C@@H]4CC[C@H]([C@H](C)CC[C@@H](O)C(C)C)[C@H]4CC[C@@H]32)C1 [Compound F-10, (3S,8S,9S,10R,13R,14R,17R)-3-ethyl-17-((2R,5R)-5-hydroxy-6-methylheptan-2-yl)-10-methyl-2,3,4,7,8,9,10,11,12,13,14,15,16,17-tetradecahydro-1H-cyclopenta[a]phenanthren-3-ol] | – | 0.1 to 0.5 µM | – |
| CC[C@]1(O)CC[C@@]2(C)C(=CC[C@H]3[C@@H]4CC[C@H]([C@H](C)CC[C@@H](O)C(C)C)[C@@]4(CC)CC[C@@H]32)C1 [Compound F-14, (3S,8S,9S,10R,13R,14S,17R)-3,13-diethyl-17-((2R,5R)-5-hydroxy-6-methylheptan-2-yl)-10-methyl-2,3,4,7,8,9,10,11,12,13,14,15,16,17-tetradecahydro-1H-cyclopenta[a]phenanthren-3-ol] | – | 0.1 to 0.5 µM | – |
| CC[C@]1(O)CC[C@H]2[C@@H](CC[C@@H]3[C@@H]2CC[C@]2(C)[C@@H]([C@H](C)CC[C@](C)(O)C(F)(F)F)CC[C@@H]32)C1 [Compound G-1, (3S,5S,8R,9R,10S,13R,14S,17R)-3-ethyl-13-methyl-17-((2R,5S)-6,6,6-trifluoro-5-hydroxy-5-methylhexan-2-yl)hexadecahydro-1H-cyclopenta[a]phenanthren-3-ol] | – | – | Emax (Table G-2): > 200%; EC50 (Table G-2): 0.001 to 0.1 µM |
| CC[C@]1(O)CC[C@H]2[C@@H](CC[C@@H]3[C@@H]2CC[C@]2(C)[C@@H]([C@H](C)CC[C@@](C)(O)C(F)(F)F)CC[C@@H]32)C1 [Compound G-2, (3S,5S,8R,9R,10S,13R,14S,17R)-3-ethyl-13-methyl-17-((2R,5R)-6,6,6-trifluoro-5-hydroxy-5-methylhexan-2-yl)hexadecahydro-1H-cyclopenta[a]phenanthren-3-ol] | – | – | Emax (Table G-2): 100 to 200%; EC50 (Table G-2): 0.5 to 1 µM |
| CC[C@]1(O)CC[C@@]2(CC)[C@@H](CC[C@H]3[C@@H]4CC[C@H]([C@H](C)CCCC(C)(C)O)[C@@]4(C)CC[C@@H]32)C1 [Compound G-3, (3S,5S,8S,9S,10S,13R,14S,17R)-3,10-diethyl-17-((R)-6-hydroxy-6-methylheptan-2-yl)-13-methylhexadecahydro-1H-cyclopenta[a]phenanthren-3-ol] | – | – | Emax (Table G-2): 100 to 200%; EC50 (Table G-2): 0.001 to 0.1 µM |
| CC[C@]1(O)CC[C@@]2(CC)[C@@H](CC[C@H]3[C@@H]4CC[C@H]([C@H](C)CC[C@@](C)(O)C(F)(F)F)[C@@]4(C)CC[C@@H]32)C1 [Compound G-4, (3S,5S,8S,9S,10S,13R,14S,17R)-3,10-diethyl-13-methyl-17-((2R,5R)-6,6,6-trifluoro-5-hydroxy-5-methylhexan-2-yl)hexadecahydro-1H-cyclopenta[a]phenanthren-3-ol] | – | – | Emax (Table G-2): 100 to 200%; EC50 (Table G-2): 0.1 to 0.5 µM |
| CC[C@]1(O)CC[C@@]2(CC)[C@@H](CC[C@H]3[C@@H]4CC[C@H]([C@H](C)CC[C@](C)(O)C(F)(F)F)[C@@]4(C)CC[C@@H]32)C1 [Compound G-5, (3S,5S,8S,9S,10S,13R,14S,17R)-3,10-diethyl-13-methyl-17-((2R,5S)-6,6,6-trifluoro-5-hydroxy-5-methylhexan-2-yl)hexadecahydro-1H-cyclopenta[a]phenanthren-3-ol] | – | – | Emax (Table G-2): > 200%; EC50 (Table G-2): 0.001 to 0.1 µM |

— patent US20240368214A1, “POSITIVE NMDA-MODULATING COMPOUNDS AND METHODS OF USE THEREOF” (SAGE THERAPEUTICS, INC., priority 2021, published 2024)
